# Reference: US20250339409A1, “USES OF PAN BET INHIBITORS” (VYNE THERAPEUTICS INC., priority 2021, published 2025)
# Like-named read-outs stand apart in the source and are kept apart here.
# How the values were obtained:
# [1] = test system: reconstituted human epidermis stimulated with TNF-α and IFN-γ; experiment: Reconstituted human epidermis (RHE) vitiligo model: morphological analysis after H/E staining; type: cell-based; details: topical on RHE, 48 h
# Protocol: To generate the morphological and functional aspects of vitiligo, in vitro reconstituted epidermis with Normal Human Epidermal Keratinocytes (NHEK) and Normal Human Epidermal Melanocytes, darkly pigmented (NHEM-DP) are exposed to a cytokine cocktail (TNF-α and IFN-γ). The cytokine cocktail is applied during 48 hours in the culture medium of epidermis. NHEK are isolated from the fore skin of 3 Caucasian donors, and NHEM-DP are isolated from 1 donor. The tissues are cultured at the air-liquid interface in Epilife medium (Fisher Scientific, M-EPI-500-A) containing supplements and antibiotics (Gentamycin, Fisher Scientific, 15710-049). […] Three epidermis samples per condition are fixed in 4% formaldehyde solution and embedded in paraffin for further analysis (morphology analysis, melanin and melanocytes localisation/quantification). […] The tissue morphology is analyzed through a Hematoxylin/Eosin (H/E) staining. […] Formulations containing four doses of BETi1, the BETi1 vehicle (placebo) and JAK inhibitor, were evaluated in RHE TNF-α/IFN-γ vitiligo model as described in Experimental section Methods C and D and representative images of H/E stained epidermis sections are shown in FIG. 4A-H. Treatments of the RHEs with each of the formulations were initiated at day 9 of their reconstitution process. […]
# [2] = Homogeneity of BETi1 dispersions in NaCMC/saline by light microscopy; type: physicochemical; details: suspensions in NaCMC solutions
# Protocol: BETi1 is dispersed in 0.5% Sodium Carboxymethyl Cellulose (NaCMC) solution in NaCl saline (0.9% NaCl in water) to receive 4 mg/gram dispersion. […] All dispersions are thermally sterilized.
# BETi suspensions at 4 mg/g (0.4%), at 0.4 mg/g (0.04%) and at 0.04 mg/g (0.004%) (Table 38) were prepared in NaCMC solutions as set out in Experimental Method N. The homogeneity (including absence of aggregates of solid particles) of the dispersion was analyzed and confirmed by light microscopy as shown in FIG. 14A-C. […] In the sample at 0.04 mg/g mainly larger crystals were observed, since the smaller ones were probably dissolved.
# [3] = Solubility of BETi1 in water (HPLC) and in solvents (visual observation); type: physicochemical
# Protocol: The resulting sample, still containing solid BETi1, was filtered and analyzed by HPLC for assay of BETi1 in solution. Solubility of BETi in water was determined to be about 0.005 mg/gram or 0.5 mg/100 mL water (1 ml=1 g) using HPLC (Table 41A).
# To characterize the solubility of BETi in other solvents, about 5 mg of BETi1 was weighed into a 2 ml glass vial. 20 μL aliquots of each of the solvent listed in Table 41B was added to dissolve the drug substance at 25° C. Vortex and sonication were applied to assist dissolution. Approximate solubility was determined by visual observation and reported in […]
# [4] = Toxicokinetics in dogs after intra-articular injection: plasma concentrations; type: in vivo, Beagle dogs; details: dog; for AUC(0-t) / Cmax / Tmax / concentration at 1 h / concentration at 2 h / concentration at 4 h / concentration at 8 h / concentration at 24 h / concentration at 336 h / concentration at 504 h / concentration at 672 h / concentration at 4 weeks: Beagle, plasma; for AUC(0-t): read-out: Plasma AUC0-672 h; for concentration at 1 h / concentration at 2 h / concentration at 4 h / concentration at 8 h / concentration at 24 h / concentration at 336 h / concentration at 504 h / concentration at 672 h / concentration at 4 weeks: other: intra-articular injection; for concentration at 1 h / concentration at 2 h / concentration at 4 h / concentration at 8 h / concentration at 24 h / concentration at 336 h / concentration at 504 h / concentration at 672 h: read-out: Plasma concentration of BETi1; for concentration at 4 weeks: read-out: plasma level at four weeks post-treatment
# [5] = both sexes, 7.5 mg/animal, 7.5 mg intra-articular
# [6] = both sexes, 75 mg/animal, 75 mg intra-articular
# [7] = both sexes, 150 mg/animal, 150 mg intra-articular
structure (smiles),measurement,setting,value
Cn1cc(-c2cccc(O)c2Oc2ccccc2)c2cc[nH]c2c1=O [BETi1],morphological alteration of RHE (H/E staining),[1],did not induce any morphological alteration
same,aggregates of API particles in dispersions,[2],no visible aggregates of API particles
same,solubility,[3]; isopropanol,slightly soluble
same,solubility,"[3]; organic solvent or mixture, thermodynamic from solid, 1,4-Dioxane, 25° C., visual observation, read-out: Approximate solubility",104 mg/mL
same,solubility,"[3]; organic solvent or mixture, thermodynamic from solid, Acetone, 25° C., visual observation, read-out: Approximate solubility",15 mg/mL
same,solubility,"[3]; organic solvent or mixture, thermodynamic from solid, Acetonitrile, 25° C., visual observation, read-out: Approximate solubility",< 5 mg/mL
same,solubility,"[3]; organic solvent or mixture, thermodynamic from solid, Anisole, 25° C., visual observation, read-out: Approximate solubility",< 5 mg/mL
same,solubility,"[3]; organic solvent or mixture, thermodynamic from solid, Dichloromethane, 25° C., visual observation, read-out: Approximate solubility",< 5 mg/mL
same,solubility,"[3]; organic solvent or mixture, thermodynamic from solid, Ethanol, 25° C., visual observation, read-out: Approximate solubility",12 mg/mL
same,solubility,"[3]; organic solvent or mixture, thermodynamic from solid, Ethyl acetate, 25° C., visual observation, read-out: Approximate solubility",< 5 mg/mL
same,solubility,"[3]; organic solvent or mixture, thermodynamic from solid, Heptane, 25° C., visual observation, read-out: Approximate solubility",< 5 mg/mL
same,solubility,"[3]; organic solvent or mixture, thermodynamic from solid, IPAc, 25° C., visual observation, read-out: Approximate solubility",< 5 mg/mL
same,solubility,"[3]; organic solvent or mixture, thermodynamic from solid, Isopropanol, 25° C., visual observation, read-out: Approximate solubility",6 mg/mL
same,solubility,"[3]; organic solvent or mixture, thermodynamic from solid, Methanol, 25° C., visual observation, read-out: Approximate solubility",21 mg/mL
same,solubility,"[3]; organic solvent or mixture, thermodynamic from solid, Methyl ethyl ketone, 25° C., visual observation, read-out: Approximate solubility",12 mg/mL
same,solubility,"[3]; organic solvent or mixture, thermodynamic from solid, Tetrahydrofuran, 25° C., visual observation, read-out: Approximate solubility",104 mg/mL
same,solubility,"[3]; organic solvent or mixture, thermodynamic from solid, t-Butyl methyl ether, 25° C., visual observation, read-out: Approximate solubility",< 5 mg/mL
same,solubility,"[3]; polyethylene glycol 400, methanol, ethanol, acetone and methyl ethyl ketone",sparingly soluble
same,solubility,"[3]; polyethylene glycol 400, organic solvent or mixture, read-out: solubility in polyethylene glycol 400",~20 mg/mL
same,solubility,"[3]; tetrahydrofurane and 1,4-dioxane",freely soluble
same,solubility at 5 h,"[3]; thermodynamic from solid, Water, 25° C., HPLC, read-out: Approximate solubility",0.005 mg/mL
same,solubility,"[3]; water, ethyl acetate, acetonitrile, IPAc, t-Butyl methyl ether, heptane, dichloromethane or anisole",insoluble
same,solubility at 5 h,"[3]; water, as stated in the dog study, read-out: water solubility limit",0.05 mg/mL
same,AUC(0-t),"[4]; 7.5 mg/animal, Female, Study Day 1",0.472 µg·h/mL
same,Cmax,"[4]; 7.5 mg/animal, Female, Study Day 1, read-out: Plasma Cmax",0.0376 µg/mL
same,Tmax,"[4]; 7.5 mg/animal, Female, Study Day 1, read-out: Plasma Tmax",1.5 h
same,AUC(0-t),"[4]; 7.5 mg/animal, Male, Study Day 1",0.39 µg·h/mL
same,Cmax,"[4]; 7.5 mg/animal, Male, Study Day 1, read-out: Plasma Cmax",0.0321 µg/mL
same,Tmax,"[4]; 7.5 mg/animal, Male, Study Day 1, read-out: Plasma Tmax",4 h
same,AUC(0-t),"[4]; 75 mg/animal, Female, Study Day 1",3.76 µg·h/mL
same,Cmax,"[4]; 75 mg/animal, Female, Study Day 1, read-out: Plasma Cmax",0.0566 µg/mL
same,Tmax,"[4]; 75 mg/animal, Female, Study Day 1, read-out: Plasma Tmax",2 h
same,AUC(0-t),"[4]; 75 mg/animal, Male, Study Day 1",3.07 µg·h/mL
same,Cmax,"[4]; 75 mg/animal, Male, Study Day 1, read-out: Plasma Cmax",0.0502 µg/mL
same,Tmax,"[4]; 75 mg/animal, Male, Study Day 1, read-out: Plasma Tmax",2 h
same,AUC(0-t),"[4]; 150 mg/animal, Female, Study Day 1",5.99 µg·h/mL
same,Cmax,"[4]; 150 mg/animal, Female, Study Day 1, read-out: Plasma Cmax",0.0529 µg/mL
same,Tmax,"[4]; 150 mg/animal, Female, Study Day 1, read-out: Plasma Tmax",5 h
same,AUC(0-t),"[4]; 150 mg/animal, Male, Study Day 1",3.81 µg·h/mL
same,Cmax,"[4]; 150 mg/animal, Male, Study Day 1, read-out: Plasma Cmax",0.0488 µg/mL
same,Tmax,"[4]; 150 mg/animal, Male, Study Day 1, read-out: Plasma Tmax",2 h
same,concentration at 1 h,[4]; [5],0.0296 µg/mL
same,concentration at 2 h,[4]; [5],0.0326 µg/mL
same,concentration at 4 h,[4]; [5],0.0261 µg/mL
same,concentration at 8 h,[4]; [5],0.0159 µg/mL
same,concentration at 24 h,[4]; [5],0.00202 µg/mL
same,concentration at 336 h,[4]; [5],0 µg/mL
same,concentration at 504 h,[4]; [5],0 µg/mL
same,concentration at 672 h,[4]; [5],0 µg/mL
same,concentration at 1 h,[4]; [6],0.0491 µg/mL
same,concentration at 2 h,[4]; [6],0.0534 µg/mL
same,concentration at 4 h,[4]; [6],0.0394 µg/mL
same,concentration at 8 h,[4]; [6],0.0381 µg/mL
same,concentration at 24 h,[4]; [6],0.0135 µg/mL
same,concentration at 336 h,[4]; [6],0.00195 µg/mL
same,concentration at 504 h,[4]; [6],0.000835 µg/mL
same,concentration at 672 h,[4]; [6],0.000505 µg/mL
same,concentration at 1 h,[4]; [7],0.0423 µg/mL
same,concentration at 2 h,[4]; [7],0.0488 µg/mL
same,concentration at 4 h,[4]; [7],0.0358 µg/mL
same,concentration at 8 h,[4]; [7],0.0483 µg/mL
same,concentration at 24 h,[4]; [7],0.0209 µg/mL
same,concentration at 336 h,[4]; [7],0.00472 µg/mL
same,concentration at 504 h,[4]; [7],0.00219 µg/mL
same,concentration at 672 h,[4]; [7],0.00172 µg/mL
same,concentration at 4 weeks,"[4]; both sexes, 75 mg/animal, intra-articular, 75 mg",2 nM
same,concentration at 4 weeks,"[4]; both sexes, 150 mg/animal, intra-articular, 150 mg",5 nM
same,Tmax,"[4]; both sexes, intra-articular, calculated, read-out: Tmax, plasma (converted)",~120 h
same,Cmax,"[4]; both sexes, intra-articular, read-out: Cmax, plasma",0.05 µg/mL
same,clearance indicated by plasma levels,[4]; intra-articular,rapid clearance with a reduction being seen after 4 hours
same,plasma AUC lower compared to synovial levels,[4]; intra-articular,~2000 ×
same,plasma Cmax lower compared to synovial levels,[4]; intra-articular,~1000 ×
